#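 Five compound concentrations were applied to cells in 96-well plates for 48 hours; endpoints were derived by simple linear interpolation of the resulting dose-response curve. Definition used: TGI = concentration required for complete inhibition of growth.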
# What was measured:
# Test in all cases: NCI tumour cell line growth inhibition, 48 h
# IGROV1 ovarian = system: IGROV1 ovarian
# SK-OV-3 ovarian = system: SK-OV-3 ovarian
# UACC-62 melanoma = system: UACC-62 melanoma
# U251 CNS = system: U251 CNS
# NCI-H460 lung = system: NCI-H460 lung
# NCI-H226 lung = system: NCI-H226 lung
# HCC-2998 colon = system: HCC-2998 colon
# HT29 colon = system: HT29 colon
# HCT-15 colon = system: HCT-15 colon
# M14 melanoma = system: M14 melanoma
# K-562 leukemia = system: K-562 leukemia
# SNB-75 CNS = system: SNB-75 CNS
# TK-10 renal = system: TK-10 renal
# NCI-H23 lung = system: NCI-H23 lung
# MOLT-4 leukemia = system: MOLT-4 leukemia
# CAKI-1 renal = system: CAKI-1 renal
# HOP-92 NSCLC = system: HOP-92 NSCLC
# 786-0 renal = system: 786-0 renal
# MDA-MB-435 = system: MDA-MB-435
# SF-268 CNS = system: SF-268 CNS
# HL-60(TB) leukemia = system: HL-60(TB) leukemia
# MDA-MB-231 breast = system: MDA-MB-231 breast
# UO-31 renal = system: UO-31 renal
# NCI/ADR-RES ovarian = system: NCI/ADR-RES ovarian
# OVCAR-5 ovarian = system: OVCAR-5 ovarian
# BT-549 breast = system: BT-549 breast
# PC-3 prostate = system: PC-3 prostate
# SN12C renal = system: SN12C renal
# DU-145 prostate = system: DU-145 prostate
# SW-620 colon = system: SW-620 colon
# A498 renal = system: A498 renal
# HCT-116 colon = system: HCT-116 colon
# SK-MEL-5 melanoma = system: SK-MEL-5 melanoma
# HOP-62 NSCLC = system: HOP-62 NSCLC
# LOX IMVI melanoma = system: LOX IMVI melanoma
# COLO 205 colon = system: COLO 205 colon
# OVCAR-4 ovarian = system: OVCAR-4 ovarian
# KM12 colon = system: KM12 colon
# OVCAR-3 ovarian = system: OVCAR-3 ovarian
# HS 578T breast = system: HS 578T breast
# A549 NSCLC = system: A549 NSCLC
# NCI-H522 lung = system: NCI-H522 lung
# SK-MEL-28 melanoma = system: SK-MEL-28 melanoma
# T-47D breast = system: T-47D breast
# SR leukemia = system: SR leukemia
# SK-MEL-2 melanoma = system: SK-MEL-2 melanoma
# SNB-19 CNS = system: SNB-19 CNS
# SF-295 CNS = system: SF-295 CNS
# CCRF-CEM leukemia = system: CCRF-CEM leukemia
# MDA-N = system: MDA-N
# RPMI-8226 leukemia = system: RPMI-8226 leukemia
# MCF7 breast = system: MCF7 breast
# OVCAR-8 ovarian = system: OVCAR-8 ovarian
# SF-539 CNS = system: SF-539 CNS
# ACHN renal = system: ACHN renal
# RXF 393 renal = system: RXF 393 renal
# EKVX NSCLC = system: EKVX NSCLC
# UACC-257 melanoma = system: UACC-257 melanoma
structure (smiles),measurement,setting,value
O=C1C=CC(O)(C#CCO)C=C1,TGI,IGROV1 ovarian,25.6 µM
same,TGI,SK-OV-3 ovarian,> 100 µM
same,TGI,UACC-62 melanoma,29.3 µM
same,TGI,U251 CNS,23.8 µM
same,TGI,NCI-H460 lung,48.8 µM
same,TGI,NCI-H226 lung,28.1 µM
same,TGI,HCC-2998 colon,31.3 µM
same,TGI,HT29 colon,29.7 µM
same,TGI,HCT-15 colon,10.1 µM
same,TGI,M14 melanoma,44 µM
same,TGI,K-562 leukemia,> 100 µM
same,TGI,SNB-75 CNS,37.4 µM
same,TGI,TK-10 renal,25.8 µM
same,TGI,NCI-H23 lung,34.5 µM
same,TGI,MOLT-4 leukemia,> 100 µM
same,TGI,CAKI-1 renal,10.8 µM
same,TGI,HOP-92 NSCLC,5.8 µM
same,TGI,786-0 renal,> 42 µM
same,TGI,MDA-MB-435,26.9 µM
same,TGI,SF-268 CNS,34.1 µM
same,TGI,HL-60(TB) leukemia,15.8 µM
same,TGI,MDA-MB-231 breast,33.7 µM
same,TGI,UO-31 renal,32.3 µM
same,TGI,NCI/ADR-RES ovarian,30.3 µM
same,TGI,OVCAR-5 ovarian,26.9 µM
same,TGI,BT-549 breast,26.7 µM
same,TGI,PC-3 prostate,31.8 µM
same,TGI,SN12C renal,30.6 µM
same,TGI,DU-145 prostate,31.6 µM
same,TGI,SW-620 colon,15.3 µM
same,TGI,A498 renal,46 µM
same,TGI,HCT-116 colon,> 53.9 µM
same,TGI,SK-MEL-5 melanoma,> 100 µM
same,TGI,HOP-62 NSCLC,71.7 µM
same,TGI,LOX IMVI melanoma,23.3 µM
same,TGI,COLO 205 colon,> 50.2 µM
same,TGI,OVCAR-4 ovarian,25.9 µM
same,TGI,KM12 colon,32.6 µM
same,TGI,OVCAR-3 ovarian,31 µM
same,TGI,HS 578T breast,> 76.5 µM
same,TGI,A549 NSCLC,> 60.2 µM
same,TGI,NCI-H522 lung,4.16 µM
same,TGI,SK-MEL-28 melanoma,25.5 µM
same,TGI,T-47D breast,41.6 µM
same,TGI,SR leukemia,> 100 µM
same,TGI,SK-MEL-2 melanoma,33.2 µM
same,TGI,SNB-19 CNS,> 56.8 µM
same,TGI,SF-295 CNS,> 100 µM
same,TGI,CCRF-CEM leukemia,62.2 µM
same,TGI,MDA-N,23 µM
same,TGI,RPMI-8226 leukemia,22 µM
same,TGI,MCF7 breast,18.5 µM
same,TGI,OVCAR-8 ovarian,39.7 µM
same,TGI,SF-539 CNS,30.8 µM
same,TGI,ACHN renal,26.6 µM
same,TGI,RXF 393 renal,10.8 µM
same,TGI,EKVX NSCLC,40.3 µM
same,TGI,UACC-257 melanoma,27.7 µM

# Source: PubChem BioAssay (NCI)
